Experimental data: article doi:10.1101/390401v1, “Flux balance analysis predicts NADP phosphatase and NADH kinase are critical to balancing redox during xylose fermentation in Scheffersomyces stipitis” (biorxiv, 2018)

Target: T1, K. phaffii Adh2p (Komagataella pastoris, UniProt A0A1B2JBQ8)
T1 construct: gene ADH2; purified natively from wild-type K. phaffii; 40 kDa band
T1 sequence (A0A1B2JBQ8 1-350): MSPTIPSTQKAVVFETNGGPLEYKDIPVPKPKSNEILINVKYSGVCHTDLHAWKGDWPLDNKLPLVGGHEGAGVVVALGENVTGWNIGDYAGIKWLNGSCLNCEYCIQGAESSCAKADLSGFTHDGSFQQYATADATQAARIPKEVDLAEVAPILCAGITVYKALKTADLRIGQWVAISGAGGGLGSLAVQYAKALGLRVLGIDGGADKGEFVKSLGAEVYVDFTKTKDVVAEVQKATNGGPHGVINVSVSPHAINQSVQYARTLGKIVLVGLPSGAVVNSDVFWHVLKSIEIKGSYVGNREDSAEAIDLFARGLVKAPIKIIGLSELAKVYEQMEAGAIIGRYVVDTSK
Experiment: NADH and NADPH oxidation at […] nm
Type: biochemical
Settings: 0.01-10 mM butyraldehyde, NADH or NADPH, 1 mM ZnCl2, 50 mM HEPES pH 7.5, 30 C

| Compound | NADH and NADPH oxidation at 340 nm |
| --- | --- |
| NC(=O)C1=CN([C@@H]2O[C@H](COP(=O)(O)OP(=O)(O)OC[C@H]3O[C@@H](n4cnc5c(N)ncnc54)[C@H](O)[C@@H]3O)[C@@H](O)[C@H]2O)C=CC1 [NADH] | Both NADH and NADPH reduced butyraldehyde |
| CCCC=O [butyraldehyde] | Both NADH and NADPH reduced butyraldehyde |
